According to ChEMBL document CHEMBL3046608, “Efficient isolation of catechins from green tea and characterization of interaction property of catechins with proteins by HPLCUV/DAD combined with ultrafiltration” (Med Chem Res, 2012):

Key:
[1] = biological target: T1, Albumin (Homo sapiens, UniProt P02768); experiment: Binding affinity to 0.6 mM Homo sapiens (human) serum albumin by ultrafiltration-HPLC-UV/DAD method; type: ADME
[2] = system: Plasma; experiment: (§1) Total plasma protein binding in Rattus norvegicus Wistar (rat) by ultrafiltration-HPLC-UV/DAD method; type: ADME, cell-free
[3] = biological target: T1, Albumin; experiment: Binding affinity to 0.06 mM Homo sapiens (human) serum albumin by ultrafiltration-HPLC-UV/DAD method; type: ADME
[4] = system: Plasma; experiment: (§2) Total plasma protein binding in Homo sapiens (human) by ultrafiltration-HPLC-UV/DAD method; type: ADME, cell-free
[5] = system: Lipid bilayer; experiment: Binding affinity to Rattus norvegicus Wistar (rat) pancreatic phospholipid membrane by ultrafiltration-HPLC-UV/DAD method
[6] = species: Rattus norvegicus; experiment: Selectivity ratio of binding affinity to Rattus norvegicus Wistar (rat) pancreatic membrane protein to Rattus norvegicus Wistar (rat) pancreatic phospholipid membrane
[7] = as §1; type: ADME, cell-free; details: Wistar, read-out: PPB (converted)
[8] = species: Rattus norvegicus; experiment: Binding affinity to Rattus norvegicus Wistar (rat) pancreatic membrane protein by ultrafiltration-HPLC-UV/DAD method
[9] = as §2; type: ADME, cell-free; details: read-out: PPB (converted)
[10] = Diluted plasma protein binding in Rattus norvegicus Wistar (rat) by ultrafiltration-HPLC-UV/DAD method; type: ADME, cell-free; details: read-out: PPB (converted)
[11] = Diluted plasma protein binding in Homo sapiens (human) by ultrafiltration-HPLC-UV/DAD method; type: ADME, cell-free; details: read-out: PPB (converted)

T1 sequence (P02768 whole entry): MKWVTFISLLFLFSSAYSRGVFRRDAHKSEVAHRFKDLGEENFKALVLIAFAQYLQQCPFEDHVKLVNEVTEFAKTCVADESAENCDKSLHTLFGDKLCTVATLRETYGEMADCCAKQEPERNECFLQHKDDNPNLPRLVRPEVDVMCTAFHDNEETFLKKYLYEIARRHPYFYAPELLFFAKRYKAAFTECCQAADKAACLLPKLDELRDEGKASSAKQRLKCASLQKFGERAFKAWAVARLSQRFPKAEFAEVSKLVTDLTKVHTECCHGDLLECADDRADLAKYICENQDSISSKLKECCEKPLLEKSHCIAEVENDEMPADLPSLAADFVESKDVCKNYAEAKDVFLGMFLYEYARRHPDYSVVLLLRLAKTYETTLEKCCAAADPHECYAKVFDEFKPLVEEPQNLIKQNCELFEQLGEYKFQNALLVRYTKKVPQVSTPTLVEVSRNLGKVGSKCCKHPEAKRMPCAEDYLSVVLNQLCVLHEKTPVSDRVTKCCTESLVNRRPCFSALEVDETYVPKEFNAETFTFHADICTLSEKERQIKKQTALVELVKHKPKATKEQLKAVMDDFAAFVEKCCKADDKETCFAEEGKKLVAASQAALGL

| SMILES | Activity [1] [%] | PPB [2] [%] | Activity [3] [%] | PPB [4] [%] | Activity [5] [%] | Ratio [6] | fraction unbound [7] | Activity [8] [%] | fraction unbound [9] | fraction unbound [10] | fraction unbound [11] |
| --- | --- | --- | --- | --- | --- | --- | --- | --- | --- | --- | --- |
| Cn1c(=O)c2c(ncn2C)n(C)c1=O [CAFFEINE] | 72.7 | 80 | 58.4 | 80 | 62.8 | – | – | – | – | – | – |
| O=C(O[C@@H]1Cc2c(O)cc(O)cc2O[C@@H]1c1ccc(O)c(O)c1)c1cc(O)c(O)c(O)c1 [EPICATECHIN GALLATE] | 85.8 | – | 69.5 | – | 91.5 | 2 | 0.15 | 39.2 | 0.15 | – | – |
| O=C(O[C@@H]1Cc2c(O)cc(O)cc2O[C@@H]1c1cc(O)c(O)c(O)c1)c1cc(O)c(O)c(O)c1 [EPIGALOCATECHIN GALLATE] | 85.2 | – | 68.7 | – | 78.8 | – | 0.15 | 37.4 | 0.15 | – | – |
| Oc1cc(O)c2c(c1)O[C@@H](c1ccc(O)c(O)c1)[C@H](O)C2 [(-)-CATECHIN] | 65.6 | – | 30.9 | – | – | – | 0.15 | 36.9 | 0.15 | 0.55 | 0.55 |
